Measured values: patent US9040715B2 (priority 2008, dated 2015)
Converted amounts (≈) assume the structure as drawn.

Legend:
[1] = system: Aspergillus fumigatus; test: Anti-fungal/anti-yeast activity: MIC50 (broth microdilution) and MFC; format: cell-based
Method: (§1) Fluconazole, an ergosterol inhibitor, and the beta-1,3-glucan inhibitor micafungin served as controls (See Tables 1-8).
(§2) The minimum inhibitory concentrations resulting in 50% growth inhibition (MIC50) of […] Candida species (C. albicans, C. tropicalis and C. glabrata, C. lusitaniae, C. parapsilosis, and C. apicola) as well as Aspergillus fumigatus to a set of novel synthetic compounds was determined in accordance with the guidelines in CLSI document M27-A2 (Clinical and Laboratory Standards Institute; Wayne, Pa.). The total volume of cells and drug was 100 μL per microtiter well, and each drug was diluted in RPMI to achieve final concentrations of 0.2-100 μg/ml. Uninoculated cultures were used as a reference standard. Stock inoculum suspensions were prepared from 24 hour cultures on YPD (yeast extract/peptone/dextrose) media at 30° C. For MIC determinations, an inoculum of 1.0×10^3 cells of Candidia and 2.0×10^3 cells of Aspergillus per well were used, and cells in diluted drugs were prepared in RPMI-1640 medium. MICs were determined both visually and spectrophotometrically at 24 hours and 48 h at 550 nm using a micro plate reader. The MIC50 endpoint was measured as the lowest drug concentration resulting in a reduction of growth of 50% or more compared with growth of the control.
(§3) The minimum fungicidal concentrations (MFCs) were determined for each drug-isolate-medium combination as follows. After 48 hours of incubation, 100 μL of each drug-isolate-medium combination (2 plates) was subcultured onto YPD plates (100 μL of solution was spread over the YPD plate). […] The plates were then incubated at 30° C. for 48 hours.
(§4) The in vitro fungicidal activities (MFCs) were determined for each drug-isolate-medium combination as follows. After 48 hours of incubation, 10 μL each drug-isolate-medium combination was spotted onto YPD plates (10 μL of each well is spotted sequentially with positive and negative control wells). […] The plates were then incubated at 30° C. for 48 hours.

[2] = system: Candida albicans (CAF-2); test: as above; format: cell-based; details: for MIC: read-out: MIC-50
Method: as §1, §2, §3, §4

[3] = system: Candida apicola; test: as above; format: cell-based; details: for Activity (fungicidal/fungistatic) / MIC-50 / Ratio MFC/MIC: Candida apicola; for MFC: Starmerella apicola
Method: as §1, §2, §3, §4

[4] = system: Candida glabrata; test: as above; format: cell-based; details: for Activity (fungicidal/fungistatic) / Ratio MFC/MIC: Candida glabrata; for MFC / MIC: Nakaseomyces glabratus; for MIC: read-out: MIC-50
Method: as §1, §2, §3, §4

[5] = system: Candida lusitaniae; test: as above; format: cell-based; details: for Activity (fungicidal/fungistatic) / Ratio MFC/MIC: Candida lusitaniae; for MFC / MIC: Clavispora lusitaniae; for MIC: read-out: MIC-50
Method: as §1, §2, §3, §4

[6] = system: Candida tropicalis; test: as above; format: cell-based; details: for MIC: read-out: MIC-50
Method: as §1, §2, §3, §4

[7] = system: Candidia parapsilosis; test: as above; format: cell-based; details: for Activity (fungicidal/fungistatic) / Ratio MFC/MIC: Candidia parapsilosis; for MIC: read-out: MIC-50
Method: as §1, §2, §3, §4

[8] = system: Saccharomyces cerevisiae (YPH501); test: as above; format: cell-based; details: for MFC / MIC: Saccharomyces cerevisiae; for Activity (fungicidal/fungistatic) / Ratio MFC/MIC: Saccharomyces cerevisiae (YPH501); for MIC: read-out: MIC-50
[9] = system: C. albicans Mutants; test: MIC50 in C. albicans mutant strains; format: cell-based; details: Candida albicans
Method: as §2
(§5) The MIC50 of Compounds I-1, I-2, and I-5 in several mutant strains of Candida albicans, including fluconazole resistant clinical strains, was determined according to the methods described in Example 1 (see Table 9). The activity of Compound I-1 against fluconazole resistant strains was further explored (see Table 10). In Table 10, Strain #1 is a fluconazole sensitive Candida albicans strain; Strain #17 is a fluconazole resistant Candida albicans strain; C. albicans CS#01 is a first clinical strain; C. albicans CS#02 is a second clinical strain.

[10] = system: Fluconazole Resistant C. albicans; test: microbe, parasite or virus in culture; format: cell-based; details: Candida albicans
Method: as §2, §5

[11] = system: Huh7 cells; test: Neutral red uptake assay (cytotoxicity); format: cell-based, human
From the text: The neutral red uptake assay is a cytotoxicity test that is based on the ability of viable cells to incorporate and bind the supra-vital dye neutral red in the lysosomes. This weakly cationic dye penetrates cell membranes by non-ionic passive diffusion and concentrates in the lysosomes, where it binds by electrostatic hydrophobic bonds to anionic and phosphate groups of the lysosomal matrix. The dye is then extracted from the viable cells using an acidified ethanol solution, and the absorbance of the solubilized dye is read. When the cell dies or the pH gradient is reduced, the dye is not retained and consequently, the amount of retained dye is proportional to the number of viable cells. Most primary cells and cell lines can be used for this method. The HepG2 and Huh7, two human hepatoma cell lines, were used for this study. The cells were seeded in 96-well tissue culture plates and treated for 48 hours with the compounds. The plates were then incubated for 2 hours with a medium containing neutral red. The cells were subsequently washed, the dye was extracted in each well, and the absorbance was read using a spectrophotometer (FIG. 3 and Table 11).

[12] = system: Huh7 or HepG2 cell line; test: MTT assay (cytotoxicity); format: cell-based, human; details: 24 hours and 48 hours
Method: The MTT assay is a colorimetric assay that measures the reduction of yellow 3-(4,5-dimethylhiazol-2-yl)-2,5-diphenyl tetrazolium bromide (MTT) by mitochondrial succinate dehydrogenase. The MTT enters the cells and passes into the mitochondria where it is reduced to an insoluble, dark purple, formazan product. The cells are then solubilized with an organic solvent (e.g., isopropanol) and the released, solubilized formazan reagent is measured spectrophotometrically. Since reduction of MTT can only occur in metabolically active cells, the level of activity is a measure of the viability of the cells.
Cells of the Huh7 or HepG2 cell line were seeded in a 96 well plate. The plate was incubated overnight at 37° C. in a humidified incubator, 5% CO2. The test compounds were added to the plate. Different concentrations of drug were tested in triplicate along with a negative control. The final volume was adjusted to 100 μl per well. The plate was incubated overnight at 37° C. in a humidified incubator, 5% CO2. After 24 hours and 48 hours, MTT reagent (5 mg/ml, 10 μl/100 μl per well of the 96 well plate) was added and incubated at 37° C. for 3 hours. After 3 hours, 100 μl of the DMSO solution was added to each well and the plate was rocked at room temperature for 1 hour. The plate was then read on a plate reader at […].

SMILES: CN(Cc1ccccc1)C(=O)Cn1sc2ccccc2c1=O [Compound I-1]
- Activity (fungicidal/fungistatic) [1]: fungistatic (an MFC/MIC ratio of greater than four indicates that the compound is fungistatic)
- MFC [1]: 100 µg/mL
- MIC50 [1]: 25 µg/mL
- Ratio MFC/MIC [1]: 4
- Activity (fungicidal/fungistatic) [2]: fungicidal (An MFC/MIC ratio of less than four indicates that the compound is fungicidal)
- MFC [2]: 6 µg/mL
- Ratio MFC/MIC [2]: 2
- MIC [2]: 3.2 µg/mL
- Activity (fungicidal/fungistatic) [3]: fungicidal (An MFC/MIC ratio of less than four indicates that the compound is fungicidal)
- MIC-50 [3]: 3.2 µg/mL
- Ratio MFC/MIC [3]: 1
- MFC [3]: 3.2 µg/mL
- Activity (fungicidal/fungistatic) [4]: fungicidal (An MFC/MIC ratio of less than four indicates that the compound is fungicidal)
- Ratio MFC/MIC [4]: 2
- MFC [4]: 12.5 µg/mL
- MIC [4]: 6.2 µg/mL
- Activity (fungicidal/fungistatic) [5]: fungicidal (An MFC/MIC ratio of less than four indicates that the compound is fungicidal)
- Ratio MFC/MIC [5]: 1
- MFC [5]: 3.2 µg/mL
- MIC [5]: 3.2 µg/mL
- Activity (fungicidal/fungistatic) [6]: fungicidal (An MFC/MIC ratio of less than four indicates that the compound is fungicidal)
- MFC [6]: 3.2 µg/mL
- Ratio MFC/MIC [6]: 1
- MIC [6]: 3.2 µg/mL
- MFC [7]: 3.2 µg/mL
- Activity (fungicidal/fungistatic) [7]: fungicidal (An MFC/MIC ratio of less than four indicates that the compound is fungicidal)
- Ratio MFC/MIC [7]: 1
- MIC [7]: 3.2 µg/mL
- MFC [8]: 3.2 µg/mL (≈ 10.2 µM)
- Activity (fungicidal/fungistatic) [8]: fungicidal (An MFC/MIC ratio of less than four indicates that the compound is fungicidal)
- Ratio MFC/MIC [8]: 2
- MIC [8]: 1.6 µg/mL (≈ 5.12 µM)
- MIC50 ([9]; C. albicans strain CAF-2): 3 µg/mL (≈ 9.6 µM)
- MIC50 ([9]; C. albicans strain CHK11): 3 µg/mL (≈ 9.6 µM)
- MIC50 ([9]; C. albicans strain CHK21): 3 µg/mL (≈ 9.6 µM)
- MIC50 ([9]; C. albicans strain CHK23): 3 µg/mL (≈ 9.6 µM)
- MIC50 ([9]; C. albicans strain GOA31): 6 µg/mL (≈ 19.2 µM)
- MIC50 ([9]; C. albicans strain GOA32): 3 µg/mL (≈ 9.6 µM)
- MIC50 ([10]; C. albicans CS#01, first clinical strain): 3 µg/mL (≈ 9.6 µM)
- MIC50 ([10]; C. albicans CS#02, second clinical strain): 3 µg/mL (≈ 9.6 µM)
- MIC50 ([10]; Strain #1, fluconazole sensitive Candida albicans strain): 3 µg/mL (≈ 9.6 µM)
- MIC50 ([10]; Strain #17, fluconazole resistant Candida albicans strain): 6 µg/mL (≈ 19.2 µM)
- Percentage Viability ([11]; 3.3 μg/mL (approx 1X MIC)): >100%
- Percentage Viability ([11]; 10 μg/mL (approx 3X MIC)): >100%
- Percentage Viability ([11]; 33 μg/mL (approx 10X MIC)): >100%
- Percentage Viability ([11]; 100 μg/mL (approx 30X MIC)): 83%
- Toxicity to mammalian cell lines (MTT assay) [12]: minimally toxic

SMILES: O=C(Cn1sc2ccccc2c1=O)Nc1ccccc1Oc1ccccc1 [Compound I-2]
- Activity (fungicidal/fungistatic) [1]: fungistatic (an MFC/MIC ratio of greater than four indicates that the compound is fungistatic)
- MFC [1]: 50 µg/mL
- MIC50 [1]: 12.5 µg/mL
- Ratio MFC/MIC [1]: 4
- Activity (fungicidal/fungistatic) [2]: fungicidal (An MFC/MIC ratio of less than four indicates that the compound is fungicidal)
- MFC [2]: 3.2 µg/mL
- Ratio MFC/MIC [2]: 1
- MIC [2]: 3.2 µg/mL
- Activity (fungicidal/fungistatic) [3]: fungicidal (An MFC/MIC ratio of less than four indicates that the compound is fungicidal)
- MIC-50 [3]: 6.4 µg/mL
- Ratio MFC/MIC [3]: 1
- MFC [3]: 6.4 µg/mL
- Activity (fungicidal/fungistatic) [4]: fungicidal (An MFC/MIC ratio of less than four indicates that the compound is fungicidal)
- Ratio MFC/MIC [4]: 2
- MFC [4]: 3.2 µg/mL
- MIC [4]: 1.6 µg/mL
- Activity (fungicidal/fungistatic) [5]: fungicidal (An MFC/MIC ratio of less than four indicates that the compound is fungicidal)
- Ratio MFC/MIC [5]: 2
- MFC [5]: 3.2 µg/mL
- MIC [5]: 1.6 µg/mL
- Activity (fungicidal/fungistatic) [6]: fungicidal (An MFC/MIC ratio of less than four indicates that the compound is fungicidal)
- MFC [6]: 3.2 µg/mL
- Ratio MFC/MIC [6]: 1
- MIC [6]: 3.2 µg/mL
- MFC [7]: 3.2 µg/mL
- Activity (fungicidal/fungistatic) [7]: fungicidal (An MFC/MIC ratio of less than four indicates that the compound is fungicidal)
- Ratio MFC/MIC [7]: 2
- MIC [7]: 1.6 µg/mL
- MFC [8]: 3.2 µg/mL (≈ 8.5 µM)
- Activity (fungicidal/fungistatic) [8]: fungicidal (An MFC/MIC ratio of less than four indicates that the compound is fungicidal)
- Ratio MFC/MIC [8]: 2
- MIC [8]: 1.6 µg/mL (≈ 4.25 µM)
- MIC50 ([9]; C. albicans strain CAF-2): 3 µg/mL (≈ 7.97 µM)
- MIC50 ([9]; C. albicans strain CHK11): 12.5 µg/mL (≈ 33.2 µM)
- MIC50 ([9]; C. albicans strain CHK21): > 100 µg/mL
- MIC50 ([9]; C. albicans strain CHK23): 25 µg/mL (≈ 66.4 µM)
- MIC50 ([9]; C. albicans strain GOA31): 3 µg/mL (≈ 7.97 µM)
- MIC50 ([9]; C. albicans strain GOA32): 3 µg/mL (≈ 7.97 µM)
- Percentage Viability ([11]; 3.3 μg/mL (approx 1X MIC)): >100%
- Percentage Viability ([11]; 10 μg/mL (approx 3X MIC)): >100%
- Percentage Viability ([11]; 33 μg/mL (approx 10X MIC)): >100%
- Percentage Viability ([11]; 100 μg/mL (approx 30X MIC)): 75%
- Toxicity to mammalian cell lines (MTT assay) [12]: minimally toxic
